Source: the supplement of paper PMC11061612

Tests used:
Experiment in all cases: Bliss excess, mean over the matrix (fraction); higher = more synergy
[1] = tested on: K-562 (Chronic Myelogenous Leukemia)
Method in brief: (§1)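 Cell lines grown in DMEM/F12 or RPMI with 10% FBS were plated in 1536-well plates and held 24 hours at 37°C, 5% CO2 before 72 hours of exposure to two-drug dose matrices, with DMSO typically at 0.2%. CellTiter-Glo 2.0 luminescence gave viability, which was converted to inhibition. Vehicle wells were set to 0 and blank wells to 1. Combination Emax is the second-highest inhibition in the matrix, and Bliss excess is the observed combination effect minus the expected EA + EB − EA·EB, where EA and EB are the single-agent effects.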

[2] = tested on: PANC-08-13 (Pancreatic Carcinoma)
Method in brief: as §1

[3] = tested on: L-540 (Hodgkin's Lymphoma)
Method in brief: as §1

[4] = tested on: MKN28 (Gastric Carcinoma)
Method in brief: as §1

[5] = tested on: CAMA-1 (Breast Carcinoma)
Method in brief: as §1

[6] = tested on: NCI-H847 (Small Cell Lung Carcinoma)
Method in brief: as §1

[7] = tested on: TE-6 (Esophageal Squamous Cell Carcinoma)
Method in brief: as §1

[8] = tested on: DND-41 (T-Lymphoblastic Leukemia)
Method in brief: as §1

[9] = tested on: BFTC-905 (Bladder Carcinoma)
Method in brief: as §1

CHP-212 (Neuroblastoma) = tested on: CHP-212 (Neuroblastoma)
Method in brief: as §1

TC-71 (Ewing's Sarcoma) = tested on: TC-71 (Ewing's Sarcoma)
Method in brief: as §1

[10] = tested on: NCI-H1792 (Lung Adenocarcinoma)
Method in brief: as §1

WIL2-NS (Non-Cancerous) = tested on: WIL2-NS (Non-Cancerous)
Method in brief: as §1

[11] = tested on: KYSE-180 (Esophageal Squamous Cell Carcinoma)
Method in brief: as §1

ES1 (Ewing's Sarcoma) = tested on: ES1 (Ewing's Sarcoma)
Method in brief: as §1

[12] = tested on: KM12 (Colorectal Carcinoma)
Method in brief: as §1

U251 (Low Grade Glioma) = tested on: U251 (Low Grade Glioma)
Method in brief: as §1

[13] = tested on: HDQ-P1 (Breast Carcinoma)
Method in brief: as §1

[14] = tested on: SU-DHL-8 (B-Cell Non-Hodgkin's Lymphoma)
Method in brief: as §1

[15] = tested on: MFM-223 (Breast Carcinoma)
Method in brief: as §1

Row | SMILES | Bliss excess [1] | Bliss excess [2] | Bliss excess [3] | Bliss excess [4] | Bliss excess [5] | Bliss excess [6] | Bliss excess [7] | Bliss excess [8] | Bliss excess [9] | Bliss excess (CHP-212 (Neuroblastoma)) | Bliss excess (TC-71 (Ewing's Sarcoma)) | Bliss excess [10] | Bliss excess (WIL2-NS (Non-Cancerous)) | Bliss excess [11] | Bliss excess (ES1 (Ewing's Sarcoma)) | Bliss excess [12] | Bliss excess (U251 (Low Grade Glioma)) | Bliss excess [13] | Bliss excess [14] | Bliss excess [15]
1 | CN(C)CCCOc1ccc(-c2ccc3ncc4c(c3c2)n(C2CCOCC2)c(=O)n4C)cn1 [AZD0156] + O=C(c1cc(Cc2n[nH]c(=O)c3ccccc23)ccc1F)N1CCN(C(=O)C2CC2)CC1 [Olaparib] (first compound max 3 µM, partner max 3 µM) | 0.0271 | -0.0215 | 0.0746 | -0.0432 | 0.0457 | 0.227 | 0.0029 | 0.0867 | 0.175 | 0.222 | 0.3 | 0.0848 | 0.215 | 0.0654 | 0.245 | 0.121 | 0.0345 | -0.0859 | 0.0543 | -0.0186
2 | C=CCn1c(=O)c2cnc(Nc3ccc(N4CCN(C)CC4)cc3)nc2n1-c1cccc(C(C)(C)O)n1 [AZD1775] + C1CN(CCC1(C(=O)N[C@@H](CCO)C2=CC=C(C=C2)Cl)N)C3=NC=NC4=C3C=CN4 [Capivasertib] (first compound max 3 µM, partner max 3 µM) | -0.0516 | -0.0493 | -0.0019 | -0.0219 | -0.0244 | -0.0643 | 0.0422 | -0.0428 | -0.0499 | -0.077 | 0.0131 | 0.0053 | -0.0675 | -0.0066 | -0.0219 | -0.0162 | -0.0223 | -0.0679 | 0.0097 | -0.0369
3 | C=CCn1c(=O)c2cnc(Nc3ccc(N4CCN(C)CC4)cc3)nc2n1-c1cccc(C(C)(C)O)n1 [AZD1775] + C[C@@H]1COCCN1C2=NC(=NC(=C2)C3(CC3)[S@](=N)(=O)C)C4=C5C=CNC5=NC=C4 [AZD6738] (first compound max 1 µM, partner max 10 µM) | 0.0433 | -0.0203 | -0.0091 | 0.0597 | 0.0371 | 0.0684 | 0.0135 | 0.0181 | 0.0665 | -0.0567 | 0.0431 | 0.0105 | 0.0269 | 0.0869 | 0.0487 | 0.0228 | 0.0604 | -0.0038 | -0.0202 | 0.0412
4 | C=CCn1c(=O)c2cnc(Nc3ccc(N4CCN(C)CC4)cc3)nc2n1-c1cccc(C(C)(C)O)n1 [AZD1775] + O=C(c1cc(Cc2n[nH]c(=O)c3ccccc23)ccc1F)N1CCN(C(=O)C2CC2)CC1 [Olaparib] (first compound max 1 µM, partner max 10 µM) | -0.0678 | -0.0095 | -0.045 | 0.0046 | -0.0452 | 0.0627 | -0.0297 | -0.0025 | -0.0292 | -0.0383 | -0.0626 | -0.0261 | -0.0087 | 0.0253 | -0.0114 | -0.0201 | -0.0154 | -0.0441 | -0.0157 | -0.0421
5 | CCN(CCO)CCCOc1ccc2c(Nc3cc(CC(=O)Nc4cccc(F)c4)[nH]n3)ncnc2c1 [AZD2811] + C=CCn1c(=O)c2cnc(Nc3ccc(N4CCN(C)CC4)cc3)nc2n1-c1cccc(C(C)(C)O)n1 [AZD1775] (first compound max 1 µM, partner max 1 µM) | 0.0526 | -0.0319 | 0.0772 | -0.0954 | -0.0328 | -0.0091 | -0.0367 | 0.0198 | 0.0468 | -0.0625 | 0.0744 | -0.0328 | 0.0117 | 0.0089 | 0.16 | -0.0092 | -0.0117 | -0.0186 | 0.0945 | 0.0277
6 | CCN(CCO)CCCOc1ccc2c(Nc3cc(CC(=O)Nc4cccc(F)c4)[nH]n3)ncnc2c1 [AZD2811] + C[C@@H]1COCCN1C2=NC(=NC(=C2)C3(CC3)[S@](=N)(=O)C)C4=C5C=CNC5=NC=C4 [AZD6738] (first compound max 1 µM, 7x7, partner max 10 µM) | -0.0494 | -0.0312 | -0.0078 | -0.0513 | -0.0417 | -0.0089 | -0.0175 | -0.018 | -0.0462 | -0.0822 | -0.0335 | -0.0577 | 0.0036 | -0.0184 | 0.0413 | -0.0709 | -0.0255 | -0.0597 | 0.134 | -0.0251
7 | CCN(CCO)CCCOc1ccc2c(Nc3cc(CC(=O)Nc4cccc(F)c4)[nH]n3)ncnc2c1 [AZD2811] + O=C(c1cc(Cc2n[nH]c(=O)c3ccccc23)ccc1F)N1CCN(C(=O)C2CC2)CC1 [Olaparib] (first compound max 1 µM, 7x7, partner max 10 µM) | 0.0216 | -0.0087 | 0.0113 | -0.0319 | -0.0308 | -0.0464 | -0.0006 | -0.0059 | -0.0029 | -0.0249 | -0.0772 | -0.0029 | -0.033 | 0.0207 | 0.0749 | 0.0068 | 0.0281 | 0.0076 | 0.102 | 0.0058
8 | CN(CCO)CC[C@H](CSc1ccccc1)Nc1ccc(S(=O)(=O)NC(=O)c2ccc(N3CCC([C@@H](O)c4ccccc4-c4ccc(Cl)cc4)CC3)cc2)cc1S(=O)(=O)C(F)(F)F [AZD4320] + C1CN(CCC1(C(=O)N[C@@H](CCO)C2=CC=C(C=C2)Cl)N)C3=NC=NC4=C3C=CN4 [Capivasertib] (first compound max 1 µM, 7x7, partner max 3 µM) | -0.0155 | -0.0374 | -0.0075 | -0.0404 | -0.0365 | 0.0226 | 0.0377 | -0.0205 | -0.0552 | -0.0667 | -0.0699 | -0.0643 | 0.0219 | -0.0057 | 0.0027 | -0.0572 | -0.0689 | 0.0119 | -0.0454 | -0.01
9 | CN(CCO)CC[C@H](CSc1ccccc1)Nc1ccc(S(=O)(=O)NC(=O)c2ccc(N3CCC([C@@H](O)c4ccccc4-c4ccc(Cl)cc4)CC3)cc2)cc1S(=O)(=O)C(F)(F)F [AZD4320] + C=CCn1c(=O)c2cnc(Nc3ccc(N4CCN(C)CC4)cc3)nc2n1-c1cccc(C(C)(C)O)n1 [AZD1775] (first compound max 1 µM, partner max 1 µM) | 0.0582 | -0.0019 | 0.0594 | -0.0545 | -0.0421 | 0.0494 | 0.0061 | 0.049 | -0.029 | -0.0137 | 0.0339 | 0.0128 | 0.0252 | 0.0258 | 0.0958 | -0.0316 | -0.0676 | 0.0886 | 0.0017 | -0.0103
10 | CN(CCO)CC[C@H](CSc1ccccc1)Nc1ccc(S(=O)(=O)NC(=O)c2ccc(N3CCC([C@@H](O)c4ccccc4-c4ccc(Cl)cc4)CC3)cc2)cc1S(=O)(=O)C(F)(F)F [AZD4320] + CCN(CCO)CCCOc1ccc2c(Nc3cc(CC(=O)Nc4cccc(F)c4)[nH]n3)ncnc2c1 [AZD2811] (first compound max 1 µM, 7x7, partner max 1 µM) | 0.0055 | -0.0166 | 0.0985 | -0.0107 | 0.0961 | 0.0014 | 0.0228 | 0.0382 | 0.121 | 0.0016 | -0.0299 | -0.0267 | 0.0006 | 0.0189 | 0.142 | 0.0173 | 0.0287 | 0.0258 | -0.013 | -0.0022
11 | CN(CCO)CC[C@H](CSc1ccccc1)Nc1ccc(S(=O)(=O)NC(=O)c2ccc(N3CCC([C@@H](O)c4ccccc4-c4ccc(Cl)cc4)CC3)cc2)cc1S(=O)(=O)C(F)(F)F [AZD4320] + CN(C)CCCOc1ccc(-c2ccc3ncc4c(c3c2)n(C2CCOCC2)c(=O)n4C)cn1 [AZD0156] (first compound max 1 µM, 7x7, partner max 1 µM) | -0.0027 | -0.0051 | 0.0178 | -0.0429 | -0.0591 | 0.0109 | 0.0418 | -0.0036 | -0.017 | -0.056 | -0.0112 | -0.0144 | 0.0109 | -0.0037 | -0.0129 | -0.0489 | -0.0374 | -0.03 | -0.044 | -0.0347
12 | CN(CCO)CC[C@H](CSc1ccccc1)Nc1ccc(S(=O)(=O)NC(=O)c2ccc(N3CCC([C@@H](O)c4ccccc4-c4ccc(Cl)cc4)CC3)cc2)cc1S(=O)(=O)C(F)(F)F [AZD4320] + C[C@@H]1COCCN1C2=NC(=NC(=C2)C3(CC3)[S@](=N)(=O)C)C4=C5C=CNC5=NC=C4 [AZD6738] (first compound max 1 µM, 7x7, partner max 10 µM) | -0.0245 | -0.019 | 0.0082 | -0.0528 | -0.0016 | -0.0091 | -0.0927 | -0.0028 | -0.0286 | -0.0496 | 0.075 | -0.0647 | -0.0004 | -0.0042 | 0.0567 | -0.0272 | -0.0272 | 0.0268 | 0.019 | -0.0367
13 | CN(CCO)CC[C@H](CSc1ccccc1)Nc1ccc(S(=O)(=O)NC(=O)c2ccc(N3CCC([C@@H](O)c4ccccc4-c4ccc(Cl)cc4)CC3)cc2)cc1S(=O)(=O)C(F)(F)F [AZD4320] + C[C@@H](Nc1cc(F)cc(F)c1)c1cc(C(=O)N(C)C)cc2c(=O)cc(N3CCOCC3)oc12 [AZD8186] (first compound max 1 µM, 7x7, partner max 3 µM) | 0.0309 | -0.007 | 0.068 | 0.0229 | 0.0218 | 0.0851 | 0.0313 | 0.0338 | -0.0221 | -0.072 | -0.027 | 0.0942 | -0.0709 | 0.0343 | 0.0591 | 0.0562 | -0.0013 | -0.0018 | -0.0714 | -0.0059
